Reference: patent publication US10821098B2, “Treatment using dantrolene” (Lyotropic Therapeutics, Inc., priority 2001, dated 2020)

Assays:
neuronal cells = conditions: cited from earlier work
Malignant Hyperthermia = conditions: in vivo; cited from earlier work
solubility in water = format: physicochemical
[1] = system: apoptotic nuclei in the cortex of rats given 5 mg/kg kainic acid; conditions: cited from earlier work
cell culture = conditions: cited from earlier work
[2] = system: rats subjected to 60 min of CPB; experiment: recovery model of cardiopulmonary bypass (CPB) in the rat; format: in vivo
Protocol: For example, three groups of rats may be subjected to 60 min of normothermic (37.5 degrees C.) nonpulsatile cardiopulmonary bypass (CPB) using a roller pump and a membrane oxygenator. Group 1 rats (n=10) receive no treatment. Group 2 rats (n=10) are pretreated with low volume dantrolene IV, 2.5 mg/kg, and Group 3 rats (n=10) are pretreated with low volume dantrolene IV, 5.0 mg/kg. A fourth group, (Group 4) serve as sham operated controls (n=10). Neurologic outcome is assessed on days 1, 3, and 12 after CPB using standardized functional testing. Neurocognitive outcome, defined as the time (or latency) to finding a submerged platform in a Morris water maze (an indicator of visual-spatial learning and memory), is evaluated daily from post-CPB days 3-12. […]

[3] = doses as high as 7.5 mg/kg i.v.; cited from earlier work
rats = conditions: intraperitoneally to rats; cited from earlier work
patients = experiment: neurocognitive testing of patients undergoing coronary artery re-vascularization during cardiopulmonary bypass; format: in vivo, humans; conditions: 1.0 mg/kg of 5% colloidal dantrolene; 24 hours and six weeks post-op
Protocol: Prior to surgery, each patient would be given a battery of nine standard tests designed to measure cognitive function in four broad categories; attention and concentration; verbal memory; abstraction and visual orientation; and figure (numbers) memory. Patients would again administered the same tests 24 hours and six weeks post-operatively. Each assessment would be performed by the same investigator who would be blinded to the patient's study group assignment. At the time of the operation, each patient would be induced of general anesthesia according to a protocol utilizing a modified cardiac/narcotic technique. All agents would be administered on a weight based dose (mg/kg) whenever possible. Volatile anesthetic agents would be administered and regulated by the anesthesiologist via the endotracheal tube to maintain adequate blood and pulse pressures both pre and post bypass, and by the perfusionist during bypass to maintain pressures suitable for adequate tissue perfusion. A standardized protocol by which the operation is to be performed would be designed and applied to each patient enrolled in this study. […]

[4] = system: apoptotic nuclei in the cortex of rats given 5 mg/kg kainic acid; conditions: quotient A/B as defined in the patent
Protocol: In the context of this patent, we define “therapeutic index” of a therapeutic drug (or mixture) to be the quotient A/B, where A and B are defined as follows: A is the LD50 (dose yielding 50% lethality) of the drug when given intraperitoneally to rats; and B is the dose of the drug that when given i.p. yields 50% reduction of apoptotic nuclei in the cortex of rats given 5 mg/kg kainic acid, according to the protocol described by Popescu et al. in [J. Cell.

dissolution = format: physicochemical
[5] = system: rats subjected to 60 min of CPB; conditions: Ma et al.; cited from earlier work

## N#Cc1cc2[nH]c(=O)c(=O)[nH]c2cc1[N+](=O)[O-] [CNQX]
Neuronal cells
  prevention of kainic-induced neurological damage: prevented

## O=C1CN(/N=C/c2ncc(-c3ccc(Br)cc3)o2)C(=O)N1 [azumolene]
Malignant Hyperthermia
  benefit in the treatment of Malignant Hyperthermia (MH): limited benefit

## O=C1CN(/N=C/c2ccc(-c3ccc([N+](=O)[O-])cc3)o2)C(O)=N1 [dantrolene sodium]
Solubility in water
  solubility: < 400 µg/mL

## O=C1CN(/N=C/c2ccc(-c3ccc([N+](=O)[O-])cc3)o2)C(O)=N1 [dantrolene]
[1]; i.p., rats given 5 mg/kg kainic acid
  dose yielding 50% reduction of apoptotic nuclei in the cortex: 10 mg/kg
[1]; rat, in vivo
  kainic acid-mediated apoptosis mechanism: inhibits
Cell culture
  toxicity induced by NMDA: inhibits
  toxicity induced by glutamate: inhibits
  toxicity of quisqualate (QA): inhibited
[2]; 10.0 mg/kg IV 15 min prior to CPB
  attenuation of CPB-induced neurologic and neurocognitive dysfunction: comparable to xenon
[2]; pretreatment IV at both 2.5 mg/kg and 5.0 mg/kg, days 1-12
  neurologic and neurocognitive outcome after CPB: attenuates CPB associated neurologic and neurocognitive impairment
[3]
  cardiopulmonary depression: does not cause cardiopulmonary depression
rats
  LD50 (dose yielding 50% lethality): 780 mg/kg
patients
  CPB-induced neurologic and neurocognitive impairment in man: attenuates CPB-induced neurologic and neurocognitive impairment in man
[4]
  therapeutic index (LD50 / dose for 50% reduction of apoptotic nuclei): 78
dissolution; listed as Dantrolene free acid
  dissolution compared with the sodium salt: slower and less reliable
dissolution; listed as free acid
  dissolution compared with the sodium salt: significantly slower and more problematic than that of dantrolene sodium

## [Xe] [xenon]
[5]
  neuroprotection in the rat CPB model: protective
